The values that follow come from ChEMBL document CHEMBL4184213, “Essential structure of orexin 1 receptor antagonist YNT-707, Part II: Drastic effect of the 14-hydroxy group on the orexin 1 receptor antagonistic activity” (Bioorg Med Chem Lett, 2018).

Test [1] concerns the target T1, Orexin receptor type 2 (Homo sapiens, UniProt O43614).
T1 sequence (O43614 whole entry): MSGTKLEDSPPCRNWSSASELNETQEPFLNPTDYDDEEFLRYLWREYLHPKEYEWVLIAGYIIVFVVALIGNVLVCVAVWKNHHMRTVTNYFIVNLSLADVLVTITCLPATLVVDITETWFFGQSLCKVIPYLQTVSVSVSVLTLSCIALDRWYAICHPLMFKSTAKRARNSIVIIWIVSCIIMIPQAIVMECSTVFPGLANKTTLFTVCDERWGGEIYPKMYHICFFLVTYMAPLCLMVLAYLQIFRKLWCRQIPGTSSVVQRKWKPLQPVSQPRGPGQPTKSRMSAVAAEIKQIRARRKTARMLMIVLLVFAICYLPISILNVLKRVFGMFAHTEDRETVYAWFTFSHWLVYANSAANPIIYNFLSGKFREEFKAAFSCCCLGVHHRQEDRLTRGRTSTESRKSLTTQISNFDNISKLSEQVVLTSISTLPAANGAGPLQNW
Put plainly: Antagonist activity at human OX2R expressed in CHOK1 cells assessed as inhibition of orexin A-induced intracellular Ca2+ release preincubated for 15 mins followed by orexin A addition by Fura 2-AM dye based fluorescence assay. It counts as functional, cell-based.

In test [2] the target is T2, Orexin/Hypocretin receptor type 1 (Homo sapiens, UniProt O43613).
T2 sequence (O43613 whole entry): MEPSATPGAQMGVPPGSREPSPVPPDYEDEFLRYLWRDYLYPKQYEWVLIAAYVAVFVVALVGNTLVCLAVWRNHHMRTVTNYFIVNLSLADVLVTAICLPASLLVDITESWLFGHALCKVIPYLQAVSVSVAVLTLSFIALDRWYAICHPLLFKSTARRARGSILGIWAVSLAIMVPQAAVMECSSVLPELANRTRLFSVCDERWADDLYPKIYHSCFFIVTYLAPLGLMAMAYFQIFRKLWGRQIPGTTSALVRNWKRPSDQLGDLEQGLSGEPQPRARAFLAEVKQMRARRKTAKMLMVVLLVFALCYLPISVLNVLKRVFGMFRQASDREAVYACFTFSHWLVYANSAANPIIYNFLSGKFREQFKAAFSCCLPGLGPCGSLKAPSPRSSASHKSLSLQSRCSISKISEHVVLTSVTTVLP
Nature of the test: Antagonist activity at human OX1R expressed in CHOK1 cells assessed as inhibition of orexin A-induced intracellular Ca2+ release preincubated for 15 mins followed by orexin A addition by Fura 2-AM dye based fluorescence assay. The class given is functional, cell-based.

Bounds are passed on as bounds.

The term Ki denotes a dissociation constant, usually derived from enzyme kinetics or from competition with a known ligand. With `COc1ccc2c3c1O[C@H]1[C@@H](N(C)C(=O)/C=C/c4ccoc4)CC[C@@]4(O)[C@@H](C2)N(S(=O)(=O)c2ccccc2)CC[C@]314`, in test [1], the Ki was greater than 10000 nM.

`COc1ccc2c3c1O[C@H]1[C@H](N(C)C(=O)/C=C/c4ccoc4)CC[C@@]4(O)[C@@H](C2)N(S(=O)(=O)c2ccccc2)CC[C@]314`: the inhibition constant (Ki) in test [1] was greater than 10000 nM.

Regarding `COc1ccc2c3c1O[C@H]1[C@@H](N(C)C(=O)/C=C/c4ccoc4)CC=C4[C@@H](C2)N(S(=O)(=O)c2ccccc2)CC[C@]431`, the Ki in test [2] came out at 17.8 nM; in test [1], 123 nM.

For `COc1ccc2c3c1O[C@H]1[C@@H](N(C)C(=O)/C=C/c4ccoc4)CC[C@H]4[C@@H](C2)N(S(=O)(=O)c2ccccc2)CC[C@@]341`, the Ki in test [2] is 187 nM; in test [1], greater than 10000 nM.

With `COc1ccc2c3c1O[C@H]1[C@H](N(C)C(=O)/C=C/c4ccoc4)CC=C4[C@@H](C2)N(S(=O)(=O)c2ccccc2)CC[C@]431`, the figures for the Ki in test [2] and in test [1] were 2.06 nM and greater than 10000 nM, respectively.

Take `COc1ccc2c3c1O[C@H]1[C@H](N(C)C(=O)/C=C/c4ccoc4)CC[C@H]4[C@@H](C2)N(S(=O)(=O)c2ccccc2)CC[C@@]341`: the Ki in test [2] is 1.97 nM; in test [1] it was greater than 10000 nM.
